Assay results reported in patent US20220009920A1 (GB005, Inc., priority 2020, published 2022).

Assays:
Test in all cases: Large panel kinase profiling
Format in all cases: biochemical
Settings in all cases: 1 μM test article, 1 mM ATP
[1] = target: MAP3K14 (Homo sapiens, UniProt Q99558)
Outline: (§1)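 CSox-Sensor fluorescence readout; test article 1 μM, ATP 1 mM, 30° C.; kinetic reads at 1-min intervals, Ex 360/Em 485 nm.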

[2] = target: T1, EGFR (Homo sapiens, UniProt P00533)
T1 construct: AssayQuant Technologies, Inc. (service laboratory)
T1 sequence (P00533 25-1210, species assumed): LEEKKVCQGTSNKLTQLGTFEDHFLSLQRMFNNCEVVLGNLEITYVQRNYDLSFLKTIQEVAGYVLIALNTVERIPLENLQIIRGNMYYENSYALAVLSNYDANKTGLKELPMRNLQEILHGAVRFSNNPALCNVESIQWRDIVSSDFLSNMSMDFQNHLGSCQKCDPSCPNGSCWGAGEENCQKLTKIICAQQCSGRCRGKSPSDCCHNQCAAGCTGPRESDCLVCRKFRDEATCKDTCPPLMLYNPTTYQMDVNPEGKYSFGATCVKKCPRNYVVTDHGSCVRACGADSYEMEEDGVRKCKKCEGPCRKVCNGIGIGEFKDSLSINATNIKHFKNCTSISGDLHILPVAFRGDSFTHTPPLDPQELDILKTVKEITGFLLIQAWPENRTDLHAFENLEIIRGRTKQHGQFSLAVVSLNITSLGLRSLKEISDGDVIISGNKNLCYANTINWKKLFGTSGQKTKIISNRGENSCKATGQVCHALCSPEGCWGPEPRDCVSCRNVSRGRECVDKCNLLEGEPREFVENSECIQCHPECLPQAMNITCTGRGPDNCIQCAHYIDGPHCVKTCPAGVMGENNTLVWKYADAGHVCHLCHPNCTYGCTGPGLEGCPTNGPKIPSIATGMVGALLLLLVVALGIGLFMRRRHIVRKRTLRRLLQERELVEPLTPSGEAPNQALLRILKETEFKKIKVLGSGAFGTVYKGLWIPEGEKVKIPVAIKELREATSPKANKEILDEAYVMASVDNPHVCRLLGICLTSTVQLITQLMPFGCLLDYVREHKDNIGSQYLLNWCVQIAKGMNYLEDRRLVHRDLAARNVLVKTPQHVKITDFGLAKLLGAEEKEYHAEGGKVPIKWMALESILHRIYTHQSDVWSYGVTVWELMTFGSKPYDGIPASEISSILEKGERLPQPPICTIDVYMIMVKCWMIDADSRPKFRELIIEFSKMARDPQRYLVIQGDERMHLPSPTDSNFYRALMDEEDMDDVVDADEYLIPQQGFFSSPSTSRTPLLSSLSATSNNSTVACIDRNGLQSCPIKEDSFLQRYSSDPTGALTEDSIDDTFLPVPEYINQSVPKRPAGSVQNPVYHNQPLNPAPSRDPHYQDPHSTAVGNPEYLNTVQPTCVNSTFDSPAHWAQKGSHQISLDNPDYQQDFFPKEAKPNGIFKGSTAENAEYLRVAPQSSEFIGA
Outline: as §1

[3] = target: T2, MAP4K5/KSH1 (Homo sapiens, UniProt Q9Y4K4)
T2 construct: AssayQuant Technologies, Inc. (service provider)
T2 sequence (Q9Y4K4 whole entry): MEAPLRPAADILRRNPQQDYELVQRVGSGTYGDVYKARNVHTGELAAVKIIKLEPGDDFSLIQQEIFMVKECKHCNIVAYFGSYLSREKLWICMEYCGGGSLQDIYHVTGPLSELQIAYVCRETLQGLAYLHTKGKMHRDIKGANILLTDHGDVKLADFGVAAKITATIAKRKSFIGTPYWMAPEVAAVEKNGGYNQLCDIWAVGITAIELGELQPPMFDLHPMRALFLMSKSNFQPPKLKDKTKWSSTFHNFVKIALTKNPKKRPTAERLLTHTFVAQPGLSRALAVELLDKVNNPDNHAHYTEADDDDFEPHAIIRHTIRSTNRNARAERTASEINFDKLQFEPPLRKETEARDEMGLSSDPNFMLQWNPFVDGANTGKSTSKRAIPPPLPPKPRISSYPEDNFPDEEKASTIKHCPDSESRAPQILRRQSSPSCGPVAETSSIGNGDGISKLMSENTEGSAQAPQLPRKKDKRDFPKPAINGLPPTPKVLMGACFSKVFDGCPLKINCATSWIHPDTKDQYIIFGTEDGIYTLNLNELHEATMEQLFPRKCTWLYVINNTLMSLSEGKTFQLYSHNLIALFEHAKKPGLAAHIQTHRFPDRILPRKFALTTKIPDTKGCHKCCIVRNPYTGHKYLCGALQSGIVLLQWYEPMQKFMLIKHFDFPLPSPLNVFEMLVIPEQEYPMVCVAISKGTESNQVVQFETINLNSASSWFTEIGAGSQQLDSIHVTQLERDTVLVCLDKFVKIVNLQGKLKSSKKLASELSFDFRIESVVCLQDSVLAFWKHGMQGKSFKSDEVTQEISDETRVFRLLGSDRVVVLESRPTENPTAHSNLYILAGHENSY
Outline: as §1

[4] = target: T3, NTRK2/TRKB (Homo sapiens, UniProt Q16620)
T3 construct: AssayQuant Technologies, Inc. (assay service)
Outline: as §1

[5] = target: T4, EIF2AK1/HRI (Homo sapiens, UniProt Q9BQI3)
T4 construct: AssayQuant Technologies, Inc. (service laboratory)
Outline: as §1

[6] = target: EPHA5 (Homo sapiens, UniProt P54756)
Outline: as §1

[7] = target: T5, CDK1/E1 (Homo sapiens, UniProt P06493)
T5 construct: AssayQuant Technologies, Inc. (ran the panel)
Outline: as §1

[8] = target: PKN3 (Homo sapiens, UniProt Q6P5Z2)
Outline: as §1

[9] = target: PAK1 (Homo sapiens, UniProt Q13153)
Sequence of PAK1 (Q13153 whole entry): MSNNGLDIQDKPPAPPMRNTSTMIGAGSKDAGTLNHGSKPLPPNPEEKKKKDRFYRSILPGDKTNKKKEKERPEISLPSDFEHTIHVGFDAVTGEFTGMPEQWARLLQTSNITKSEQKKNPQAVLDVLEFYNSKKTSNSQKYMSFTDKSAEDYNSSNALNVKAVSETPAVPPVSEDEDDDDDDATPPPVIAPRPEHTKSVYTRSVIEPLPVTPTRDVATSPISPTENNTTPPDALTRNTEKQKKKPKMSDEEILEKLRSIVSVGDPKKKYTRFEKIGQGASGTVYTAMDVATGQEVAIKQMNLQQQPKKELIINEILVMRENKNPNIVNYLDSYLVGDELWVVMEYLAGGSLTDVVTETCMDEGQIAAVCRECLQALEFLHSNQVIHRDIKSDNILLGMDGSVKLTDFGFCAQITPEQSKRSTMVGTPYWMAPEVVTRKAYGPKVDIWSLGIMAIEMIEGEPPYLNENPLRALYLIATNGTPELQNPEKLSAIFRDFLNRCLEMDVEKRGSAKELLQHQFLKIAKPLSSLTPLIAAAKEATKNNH
Outline: as §1

[10] = target: T6, CSNK2A1/CK2A1 (Homo sapiens, UniProt P68400)
T6 construct: AssayQuant Technologies, Inc. (service laboratory)
T6 sequence (P68400 whole entry): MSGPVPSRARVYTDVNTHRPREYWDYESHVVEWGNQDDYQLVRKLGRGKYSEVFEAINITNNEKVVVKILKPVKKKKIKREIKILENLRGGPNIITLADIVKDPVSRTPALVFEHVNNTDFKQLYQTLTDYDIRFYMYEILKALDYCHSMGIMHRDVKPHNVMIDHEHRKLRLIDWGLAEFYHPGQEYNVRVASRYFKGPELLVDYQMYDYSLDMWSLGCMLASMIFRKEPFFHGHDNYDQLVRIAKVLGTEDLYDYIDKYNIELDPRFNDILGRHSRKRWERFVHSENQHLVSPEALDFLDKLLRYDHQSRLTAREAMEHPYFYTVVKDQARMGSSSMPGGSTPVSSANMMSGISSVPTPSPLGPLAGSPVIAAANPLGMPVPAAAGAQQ
Outline: as §1

[11] = target: T7, GRK7 (Homo sapiens, UniProt Q8WTQ7)
T7 construct: AssayQuant Technologies, Inc. (service provider)
T7 sequence (Q8WTQ7 1-553): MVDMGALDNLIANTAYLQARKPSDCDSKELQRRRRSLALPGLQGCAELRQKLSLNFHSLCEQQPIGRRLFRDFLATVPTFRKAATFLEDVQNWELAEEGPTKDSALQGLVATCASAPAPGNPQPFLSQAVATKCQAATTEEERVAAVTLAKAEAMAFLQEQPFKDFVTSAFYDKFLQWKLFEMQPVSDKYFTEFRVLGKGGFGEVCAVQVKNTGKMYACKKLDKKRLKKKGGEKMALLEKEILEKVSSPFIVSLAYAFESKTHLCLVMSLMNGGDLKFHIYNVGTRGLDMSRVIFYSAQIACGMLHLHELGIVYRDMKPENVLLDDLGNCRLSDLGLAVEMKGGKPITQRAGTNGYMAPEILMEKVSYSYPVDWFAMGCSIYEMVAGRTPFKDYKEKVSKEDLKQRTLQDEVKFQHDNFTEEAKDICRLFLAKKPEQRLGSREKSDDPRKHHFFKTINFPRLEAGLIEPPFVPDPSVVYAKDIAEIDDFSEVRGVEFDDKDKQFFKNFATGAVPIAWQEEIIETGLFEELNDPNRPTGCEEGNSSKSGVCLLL
Outline: as §1

[12] = target: T8, FYNA (Homo sapiens, UniProt P06241)
T8 construct: AssayQuant Technologies, Inc. (service provider)
Outline: as §1

[13] = target: T9, CSNK1G1/CK1G1 (Homo sapiens, UniProt Q9HCP0)
T9 construct: AssayQuant Technologies, Inc. (service laboratory)
T9 sequence (Q9HCP0 whole entry): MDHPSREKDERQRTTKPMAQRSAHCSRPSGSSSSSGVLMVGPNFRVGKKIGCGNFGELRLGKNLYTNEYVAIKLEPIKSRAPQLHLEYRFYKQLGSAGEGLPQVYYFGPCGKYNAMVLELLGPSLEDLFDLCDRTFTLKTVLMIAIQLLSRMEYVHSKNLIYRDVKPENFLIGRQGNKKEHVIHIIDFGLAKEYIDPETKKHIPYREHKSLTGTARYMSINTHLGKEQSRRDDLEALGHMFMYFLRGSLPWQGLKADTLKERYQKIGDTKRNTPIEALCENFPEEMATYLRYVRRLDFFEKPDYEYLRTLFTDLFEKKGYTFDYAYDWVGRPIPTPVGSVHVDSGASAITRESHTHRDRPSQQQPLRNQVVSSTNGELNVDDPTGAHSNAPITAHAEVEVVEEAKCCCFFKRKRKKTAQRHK
Outline: as §1

[14] = target: T10, MST1R/RON (Homo sapiens, UniProt Q04912)
T10 construct: AssayQuant Technologies, Inc. (assay service)
Outline: as §1

[15] = target: PRKCH/PKCH (Homo sapiens, UniProt P24723)
Sequence of PRKCH/PKCH (P24723 whole entry): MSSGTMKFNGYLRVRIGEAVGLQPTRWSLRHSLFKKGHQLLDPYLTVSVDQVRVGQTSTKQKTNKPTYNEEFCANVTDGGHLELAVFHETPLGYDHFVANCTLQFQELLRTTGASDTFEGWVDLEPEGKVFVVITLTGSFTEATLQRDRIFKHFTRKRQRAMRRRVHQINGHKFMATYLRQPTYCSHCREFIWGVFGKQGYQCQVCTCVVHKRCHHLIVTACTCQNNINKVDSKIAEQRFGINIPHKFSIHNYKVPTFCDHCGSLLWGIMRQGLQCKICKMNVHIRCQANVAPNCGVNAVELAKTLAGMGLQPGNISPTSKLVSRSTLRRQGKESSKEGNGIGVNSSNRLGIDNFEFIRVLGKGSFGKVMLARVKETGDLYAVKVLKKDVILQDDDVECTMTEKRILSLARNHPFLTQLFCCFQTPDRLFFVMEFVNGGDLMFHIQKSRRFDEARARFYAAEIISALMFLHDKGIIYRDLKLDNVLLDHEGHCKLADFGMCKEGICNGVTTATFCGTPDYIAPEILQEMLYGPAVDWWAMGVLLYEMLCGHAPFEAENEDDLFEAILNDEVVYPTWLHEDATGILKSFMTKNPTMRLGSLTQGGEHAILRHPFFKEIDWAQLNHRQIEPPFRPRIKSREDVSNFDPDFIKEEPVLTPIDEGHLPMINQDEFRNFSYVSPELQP
Outline: as §1

[16] = target: ROS (Homo sapiens, UniProt P08922)
Outline: as §1

Sequence of MAP3K14 (Q99558 whole entry, species assumed): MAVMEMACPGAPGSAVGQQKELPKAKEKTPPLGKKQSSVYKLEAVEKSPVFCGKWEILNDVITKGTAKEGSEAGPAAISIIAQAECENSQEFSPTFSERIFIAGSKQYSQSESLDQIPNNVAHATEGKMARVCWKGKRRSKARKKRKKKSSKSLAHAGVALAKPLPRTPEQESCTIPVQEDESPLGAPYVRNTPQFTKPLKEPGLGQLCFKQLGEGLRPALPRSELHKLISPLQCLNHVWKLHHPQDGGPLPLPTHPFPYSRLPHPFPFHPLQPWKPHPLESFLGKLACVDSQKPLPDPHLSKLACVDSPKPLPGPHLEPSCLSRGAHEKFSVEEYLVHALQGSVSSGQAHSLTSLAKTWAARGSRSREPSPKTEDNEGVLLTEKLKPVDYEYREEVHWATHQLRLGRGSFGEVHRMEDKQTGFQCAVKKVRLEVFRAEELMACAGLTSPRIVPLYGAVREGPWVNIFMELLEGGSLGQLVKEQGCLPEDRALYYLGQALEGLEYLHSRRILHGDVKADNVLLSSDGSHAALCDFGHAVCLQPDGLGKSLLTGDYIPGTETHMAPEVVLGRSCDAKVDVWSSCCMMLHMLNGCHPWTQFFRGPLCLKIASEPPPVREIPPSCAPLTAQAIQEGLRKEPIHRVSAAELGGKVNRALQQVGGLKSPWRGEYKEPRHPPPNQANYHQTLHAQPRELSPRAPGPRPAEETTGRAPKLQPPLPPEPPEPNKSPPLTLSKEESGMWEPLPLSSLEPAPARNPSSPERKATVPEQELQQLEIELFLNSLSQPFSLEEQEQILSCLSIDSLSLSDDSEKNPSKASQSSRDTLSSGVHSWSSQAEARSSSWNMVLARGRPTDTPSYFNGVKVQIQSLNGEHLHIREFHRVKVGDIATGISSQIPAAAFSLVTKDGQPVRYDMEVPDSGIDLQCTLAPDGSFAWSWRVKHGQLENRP

Structure (SMILES) | inhibition at 1 µM [1] | inhibition at 1 µM [2] | inhibition at 1 µM [3] | inhibition at 1 µM [4] | inhibition at 1 µM [5] | inhibition at 1 µM [6] | inhibition at 1 µM [7] | inhibition at 1 µM [8] | inhibition at 1 µM [9] | inhibition at 1 µM [10] | inhibition at 1 µM [11] | inhibition at 1 µM [12] | inhibition at 1 µM [13] | inhibition at 1 µM [14] | inhibition at 1 µM [15] | inhibition at 1 µM [16]
C=CC(=O)N1CCCC(c2c(F)cc(C(N)=O)c3[nH]c4c(c23)CCCCC4)C1 (single isomer, unassigned) [Compound 5-6] | 10.5% | -7.8% | -1.1% | -20.9% | -6.1% | 8.1% | -3.6% | 5.7% | 9.3% | 0.4% | 1.3% | 12% | 17.2% | -2.4% | -3.6% | -35.7%
C=CC(=O)N1CCC[C@@H](c2c(F)cc(C(N)=O)c3[nH]c4c(c23)CC2(CC4)CC2)C1 [Compound 6-2, (S)-5-(1-acryloylpiperidin-3-yl)-6-fluoro-1,2,4,9-tetrahydrospiro[carbazole-3,1′-cyclopropane]-8-carboxamide] | -11.5% | -7.7% | 4.1% | 13.1% | -34.9% | 17% | -7% | -9.4% | 11.4% | -12% | 10.9% | -5.2% | 14% | -0.6% | 5.3% | -3.6%
C=CC(=O)N1CCC[C@@H](c2c(F)cc(C(N)=O)c3[nH]c4c(c23)CCC4)C1 [Compound 10-2, (S)-8-(1-acryloylpiperidin-3-yl)-7-fluoro-1,2,3,4-tetrahydrocyclo-penta[b]indole-5-carboxamide] | -0.2% | 1.6% | -4.9% | 19.7% | -89.5% | -13.5% | -10.6% | 3.5% | 6.8% | -32% | -33% | -24.6% | -2.8% | -2.5% | -7.9% | -22%
